For 10 molecules, inhibition, Ratio and IC50 results are on record in ChEMBL document CHEMBL1146589, “Potential cncer chemopreventive flavonoids from the stems of Tephrosia toxicaria” (J Nat Prod, 2003).

Assay [1] is described as follows: Inhibition of 7,12-dimethylbenz[a]anthracene-induced preneoplastic lesions in a mouse mammary gland culture at 10 ug/mL. The format is functional.
The nature of assay [2]: Chemoprevention index, ratio of IC50 for mouse Hepa-1c1c7 cells to drug level required to double NADPH:quinone reductase activity in mouse Hepa-1c1c7 cells. In kind it is functional.
Assay [3] can be described thus: Inhibition of mouse Hepa-1c1c7 cells by MTT assay. The format is cell-based. (Tetrazolium assays rely on reduction of a dye to a coloured formazan, in cell work by metabolically active cells.)
A short description of the next assay: tissue or blood. Particulars: Mus musculus, Mammary gland, read-out: INH.

Each structure is given as a SMILES string. pIC50: −log10 of the molar value.

Description for tissue or blood: Inhibition of 7,12-dimethylbenz[a]anthracene-induced preneoplastic lesions in a mouse mammary gland culture at 1 ug/mL

On to `COc1cc(O)c2c(c1/C=C/C(C)=O)O[C@H](c1ccccc1)CC2=O`, for which, in assay [1], the inhibition at 10 µg/mL worked out at 0%. In addition, the Ratio in assay [2] is given as over 1.4. Further, in assay [3], the pIC50 (as a rule, the negative decadic logarithm of the IC50, by convention in mol/L) is under 4.83.

Turning to `COc1cc(-c2cc(=O)c3c(O)cc(O)cc3o2)ccc1O` [CHRYSOERIOL], in assay [2], the Ratio was 3.1. Moreover, the negative logarithm of the IC50 (pIC50) in assay [3] is 4.44.

In assay [1], `C=C(C)[C@H]1Cc2c(cc(O)c3c2O[C@@H]2COc4cc(OC)c(OC)cc4[C@@H]2C3=O)O1` [SUMATROL] displayed an inhibition at 10 µg/mL of 49.9%. Moreover, the pIC50 in assay [3] is under 4.33.

In the case of `C[S+]([O-])CCCCN=C=S` (stereo not drawn) [SULFORAPHANE], the inhibition at 1 µg/mL in the assay “tissue or blood” stood at 83.7%. Moreover, the Ratio in assay [2] stood at 25. Moreover, in assay [3], the negative logarithm of the IC50 (pIC50) is 4.96.

As for `O=c1c(-c2ccc(O)cc2)coc2cc(O)cc(O)c12` [GENISTEIN], in assay [2], the Ratio worked out at 2. Moreover, the pIC50 in assay [3] is 4.34.

Regarding `COc1cc2c(cc1OC)[C@@H]1C(=O)c3c(O)cc4c(c3O[C@@H]1CO2)C=CC(C)(C)O4` [TOXICAROL], in assay [1], the inhibition at 10 µg/mL is 80%. The same molecule had a pIC50 in assay [3] of under 4.33.

On to `COc1cc2c(cc1OC)[C@]1(O)C(=O)c3c(O)cc4c(c3O[C@@H]1CO2)C=CC(C)(C)O4`, for which, in assay [1], the inhibition at 10 µg/mL amounted to 60%. The molecule further gave a negative-log IC50 (pIC50) in assay [3] of under 4.33.

`COc1cc2c(cc1OC)-c1c(oc3c4c(cc(O)c3c1=O)OC(C)(C)C=C4)CO2` gave an inhibition at 10 µg/mL in assay [1] of 19%. In assay [3], this molecule gave a negative-log IC50 (pIC50) of under 4.33.

For the molecule `O=C(/C=C/c1ccc(O)cc1)c1ccc(O)cc1O` [ISOLIQUIRITIGENIN], in assay [1], the inhibition at 10 µg/mL was found to be 76%. In addition, the Ratio in assay [2] was 10.1. In assay [3], this molecule showed a negative logarithm of the IC50 (pIC50) of 4.44.

Turning to `COc1cc2c(cc1OC)[C@]1(O)C(=O)c3c(O)cc4c(c3O[C@@H]1CO2)C(OC)C(O)C(C)(C)O4` (stereo partly drawn), the Ratio in assay [2] worked out at 1.4. Besides, in assay [3], the pIC50 is 5.04.
